The assay concerns Nrf2 transcriptional activity (pARE-Luc reporter) in HepG2 cells. The experiment in a line: In vitro Nrf2 transcriptional activity measurement by ARE-dependent reporter assay in HepG2 cell. It is filed as cell-based, human. The method in brief:
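Luminescence readout (Bright-Glo) after 4 h, 37° C compound exposure of HepG2 cells carrying the ARE-luciferase vector pGL4.37. Each well converted to % response versus reference compound at 3.75 μM, and EC50 derived from dose-response curves.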
For orientation: Reporter assays use an easily measured gene product as a stand-in for the process of interest.

Where [1] appears, read: Homo sapiens, HepG2 cells transfected with pARE-Luc, 4 hours at 37° C., luciferase activity of Example 1-54 or Example 17-23 at 3.75 μM defined as 100%.

SMILES strings stand for the structures. Structures can show the parent of a compound that is named as a salt.

The record followed here is patent US20250171457A1, “NITROGEN-CONTAINING HETEROCYCLIC COMPOUND HAVING NRF2 ACTIVATION EFFECT” (CHUGAI SEIYAKU KABUSHIKI KAISHA, priority 2022, published 2025).

As usually defined, the EC50 is the concentration at which the effect is half-maximal. A higher EC50 goes with a need for much substance. In turn, `C[C@@H]1CN(C)CCN1c1cc(F)c(C(=O)N2COc3c(cccc3-c3cc(N4C5CCC4COC5)c(C(=O)O)cc3F)C2)c(Cl)c1` [Compound 19-7, 4-[3-[2-Chloro-4-[(2R)-2,4-dimethylpiperazin-1-yl]-6-fluorobenzoyl]-2,4-dihydro-1,3-benzoxazin-8-yl]-5-fluoro-2-(3-oxa-8-azabicyclo[3.2.1]octan-8-yl)benzoic acid] had an EC50 under setting [1] of 2.3 nM.
Still for that read-out and setting: under `C[C@@H]1CN(C)CCN1c1ccc(C(=O)N2COc3c(cccc3-c3cc(N4C5CCC4COC5)c(C(=O)O)cc3F)C2)c(Cl)c1` [Compound 19-8, 4-[3-[2-Chloro-4-[(2R)-2,4-dimethylpiperazin-1-yl]benzoyl]-2,4-dihydro-1,3-benzoxazin-8-yl]-5-fluoro-2-(3-oxa-8-azabicyclo[3.2.1]octan-8-yl)benzoic acid] stands 3.9 nM.
Where the note is “HepG2 cells, pARE-Luc reporter, 4 hours, 100% = Example 1-54 or Example 17-23 at 3.75 μM (repeat print of Table 20-1)”, `Cc1nc(N2CC3(C2)OCC(C)(C)CO3)cc(Cl)c1C(=O)N1COc2c(cccc2-c2cc(N3C4CCC3COC4)c(C(=O)O)cc2F)C1` [Compound 19-9, 4-[3-[4-Chloro-6-(7,7-dimethyl-5,9-dioxa-2-azaspiro[3.5]nonan-2-yl)-2-methylpyridine-3-carbonyl]-2,4-dihydro-1,3-benzoxazin-8-yl]-5-fluoro-2-(3-oxa-8-azabicyclo[3.2.1]octan-8-yl)benzoic acid] registered an EC50 of 1.4 nM.
With `CC1(C)COC2(CN(c3cc(F)c(C(=O)N4COc5c(cccc5-c5cc(N6C7CCC6COC7)c(C(=O)O)cc5F)C4)c(Cl)c3)C2)OC1` [Compound 19-10, 4-[3-[2-Chloro-4-(7,7-dimethyl-5,9-dioxa-2-azaspiro[3.5]nonan-2-yl)-6-fluorobenzoyl]-2,4-dihydro-1,3-benzoxazin-8-yl]-5-fluoro-2-(3-oxa-8-azabicyclo[3.2.1]octan-8-yl)benzoic acid], the 50% effective concentration (EC50) under setting [1] was determined as 2.5 nM.
Same read-out and setting: the same measure for `CC1(C)COC2(CN(c3ccc(C(=O)N4COc5c(cccc5-c5cc(N6C7CCC6COC7)c(C(=O)O)cc5F)C4)c(Cl)c3)C2)OC1` [Compound 19-11, 4-[3-[2-Chloro-4-(7,7-dimethyl-5,9-dioxa-2-azaspiro[3.5]nonan-2-yl)benzoyl]-2,4-dihydro-1,3-benzoxazin-8-yl]-5-fluoro-2-(3-oxa-8-azabicyclo[3.2.1]octan-8-yl)benzoic acid]: 4.3 nM.
For `Cn1nnc2c(N3CC4(C3)OCC(C)(C)CO4)cc(Cl)c(C(=O)N3COc4c(cccc4-c4cc(N5C6CCC5COC6)c(C(=O)O)cc4F)C3)c21` [Compound 19-12, 4-[3-[5-Chloro-7-(7,7-dimethyl-5,9-dioxa-2-azaspiro[3.5]nonan-2-yl)-3-methylbenzotriazole-4-carbonyl]-2,4-dihydro-1,3-benzoxazin-8-yl]-5-fluoro-2-(3-oxa-8-azabicyclo[3.2.1]octan-8-yl)benzoic acid], the response under setting [1] was half-maximal at 2.5 nM (EC50).
Still for that read-out and setting: the same measure for `Cn1nc2c(N3CC4(C3)OCC(C)(C)CO4)cc(Cl)c(C(=O)N3COc4c(cccc4-c4cc(N5C6CCC5COC6)c(C(=O)O)cc4F)C3)c2n1` [Compound 19-13, 4-[3-[5-Chloro-7-(7,7-dimethyl-5,9-dioxa-2-azaspiro[3.5]nonan-2-yl)-2-methylbenzotriazole-4-carbonyl]-2,4-dihydro-1,3-benzoxazin-8-yl]-5-fluoro-2-(3-oxa-8-azabicyclo[3.2.1]octan-8-yl)benzoic acid]: 2.1 nM.
On the same count and under the same terms, the same measure for `Cn1nnc2c(C(=O)N3COc4c(cccc4-c4cc(N5C6CCC5COC6)c(C(=O)O)cc4F)C3)c(Cl)cc(N3CC4(C3)OCC(C)(C)CO4)c21` [Compound 19-14, 4-[3-[5-Chloro-7-(7,7-dimethyl-5,9-dioxa-2-azaspiro[3.5]nonan-2-yl)-1-methylbenzotriazole-4-carbonyl]-2,4-dihydro-1,3-benzoxazin-8-yl]-5-fluoro-2-(3-oxa-8-azabicyclo[3.2.1]octan-8-yl)benzoic acid]: 4.1 nM; for `COC1CC2(C1)CN(c1cc(Cl)c(C(=O)N3COc4c(cccc4-c4cc(N5C6CCC5COC6)c(C(=O)O)cc4F)C3)c3c1nc(C)n3C)C2` [Compound 19-15, 4-[3-[5-Chloro-7-(6-methoxy-2-azaspiro[3.3]heptan-2-yl)-2,3-dimethylbenzimidazole-4-carbonyl]-2,4-dihydro-1,3-benzoxazin-8-yl]-5-fluoro-2-(3-oxa-8-azabicyclo[3.2.1]octan-8-yl)benzoic acid]: 2.3 nM.
In turn, `COC1CC2(C1)CN(c1cc(Cl)c(C(=O)N3COc4c(cccc4-c4cc(N5C6CCC5COC6)c(C(=O)O)cc4F)C3)c3nc(C)n(C)c13)C2` [Compound 19-16, 4-[3-[5-Chloro-7-(6-methoxy-2-azaspiro[3.3]heptan-2-yl)-1,2-dimethylbenzimidazole-4-carbonyl]-2,4-dihydro-1,3-benzoxazin-8-yl]-5-fluoro-2-(3-oxa-8-azabicyclo[3.2.1]octan-8-yl)benzoic acid] displayed an EC50 under setting [1] of 17 nM.
The same measure, in the same setting: under `CN1CCC2(CC1)CN(c1cc(Cl)c(C(=O)N3COc4c(cccc4-c4cc(N5C6CCC5COC6)c(C(=O)O)cc4F)C3)c(Cl)c1)C2` [Compound 19-17, 4-[3-[2,6-Dichloro-4-(7-methyl-2,7-diazaspiro[3.5]nonan-2-yl)benzoyl]-2,4-dihydro-1,3-benzoxazin-8-yl]-5-fluoro-2-(3-oxa-8-azabicyclo[3.2.1]octan-8-yl)benzoic acid] stands 6.1 nM; under `CC[C@@H]1CN(C)CCN1c1cc(Cl)c(C(=O)N2COc3c(cccc3-c3cc(N4C5CCC4COC5)c(C(=O)O)cc3F)C2)c(Cl)c1` [Compound 19-18, 4-[3-[2,6-Dichloro-4-[(2R)-2-ethyl-4-methylpiperazin-1-yl]benzoyl]-2,4-dihydro-1,3-benzoxazin-8-yl]-5-fluoro-2-(3-oxa-8-azabicyclo[3.2.1]octan-8-yl)benzoic acid], 1.3 nM; under `COC[C@@H]1CN(C)CCN1c1cc(Cl)c(C(=O)N2COc3c(cccc3-c3cc(N4C5CCC4COC5)c(C(=O)O)cc3F)C2)c(Cl)c1` [Compound 19-19, 4-[3-[2,6-Dichloro-4-[(2S)-2-(methoxymethyl)-4-methylpiperazin-1-yl]benzoyl]-2,4-dihydro-1,3-benzoxazin-8-yl]-5-fluoro-2-(3-oxa-8-azabicyclo[3.2.1]octan-8-yl)benzoic acid], 2.6 nM.
On the same count and under the same terms, the same measure for `Cn1cc(-c2cc(Cl)c(C(=O)N3COc4c(cccc4-c4cc(N5C6COCC5C6)c(C(=O)O)cc4F)C3)c(Cl)c2)cn1` [Compound 20-1, 4-[3-[2,6-Dichloro-4-(1-methylpyrazol-4-yl)benzoyl]-2,4-dihydro-1,3-benzoxazin-8-yl]-5-fluoro-2-(3-oxa-6-azabicyclo[3.1.1]heptan-6-yl)benzoic acid N,N-diethylethanamine salt]: 850 nM; for `CN1C[C@H]2CC[C@@H]1CN2c1cc(Cl)c(C(=O)N2COc3c(cccc3-c3cc(N4C5CCC4COC5)c(C(=O)O)cc3F)C2)c(Cl)c1` [Compound 20-2, 4-[3-[2,6-Dichloro-4-[(1R,4R)-5-methyl-2,5-diazabicyclo[2.2.2]octan-2-yl]benzoyl]-2,4-dihydro-1,3-benzoxazin-8-yl]-5-fluoro-2-(3-oxa-8-azabicyclo[3.2.1]octan-8-yl)benzoic acid]: 24 nM.
